The values below come from patent US20060154923A1, “N-phenyl-3-cyclopropylpyrazole-4-carbonitriles as ectoparasiticidal agents” (priority 2002, published 2006).

Holding throughout (format): in vivo
The subject of data set [1] is Ctenocephatides felis, adult cat fleas. As to the kind of experiment: Contact activity against adult cat fleas, coated glass vial assay. To be noted: for % Mortality 4 h: Conc. 2 ug/cm2, 4 h; for % Mortality 24 h: Conc. 2 ug/cm2, 24 h. As to the method: Evaluation of the Efficacy of Test Compounds Against Adult Cat Fleas
The contact activity of a test compound against Ctenocephatides felis, adult cat fleas, is evaluated in a coated, glass vial assay. In this evaluation, a solution of test compound in acetone is allowed to dry on the interior surface of a 20 mL vial. Ten unfed adult cat fleas are added to the treated vial and mortality is assessed periodically for up to 48 h. All treatments are replicated 2 times. The data are averaged.

The subject of data set [2] is newly emerged larvae of Lucilia sericata, blowfly. Description: Efficacy against blowfly larvae, treated paper/serum bioassay. To be noted: blowfly larvae. As to the method:
Evaluation of Efficacy of Test Compounds Against Blowfly Larvae
The efficacy of a test compound against newly emerged larvae of Lucilia sericata, blowfly, is evaluated using a treated paper/serum bioassay. In this evaluation, a solution of test compound in acetone is applied to a filter paper disc and the disc is allowed to dry. Bovine serum and about 20 newly emerged blowfly larvae are added to the treated paper disc and the mortality is assessed at 24 h and 48 h. The data are averaged.

For data set [3], the system named is Rhipacephalus sanguineus, adult ticks. As to the kind of experiment: Contact activity against adult ticks, coated glass vial assay. Here is the method:
Evaluation of the Efficacy of Test Compounds Against Adult Ticks
The contact activity of a test compound against Rhipacephalus sanguineus, adult ticks, is evaluated in a coated glass vial assay. In this evaluation, a solution of test compound in acetone is allowed to dry on the interior surface of a 20 mL vial. Five unfed adult ticks are added to the treated vial and mortality is assessed periodically for up to 48 h. All treatments are replicated 2 times. The data are averaged.

On to `CC1(c2nn(-c3c(Cl)cc(Cl)cc3Cl)c(Br)c2C#N)CC1(Cl)Cl` (stereo not drawn) [Example 28], for which, in data set [1], the “% Mortality 4 h” value is reported as 0%. Further, the “% Mortality 24 h” value amounted to 10% in data set [1], 0% in data set [2] (Conc. 0.2 ppm), 95% in data set [2] (Conc. 2.0 ppm) and 100% in data set [2] (Conc. 20.0 ppm). Moreover, the “% Mortality 48 h” value in data set [2] (Conc. 0.2 ppm) was 0%; in data set [2] (Conc. 2.0 ppm) it was 100%; in data set [2] (Conc. 20.0 ppm), 100%.
For `CC1(c2nn(-c3c(Cl)cc(Cl)cc3Cl)c(Cl)c2C#N)CC1(Cl)Cl` (stereo not drawn) [Example 27], the “% Mortality 4 h” value in data set [1] is 10%. For the same compound, the “% Mortality 24 h” value in data set [1] is given as 100%; in data set [2] (Conc. 0.2 ppm), 0%; in data set [2] (Conc. 2.0 ppm), 100%; in data set [2] (Conc. 20.0 ppm), 100%. The “% Mortality 48 h” value in data set [2] (Conc. 0.2 ppm) came out at 0%; in data set [2] (Conc. 2.0 ppm) it was 100%; in data set [2] (Conc. 20.0 ppm), 100%.
Regarding `COc1ccc(C2(c3nn(-c4c(Cl)cc(C(F)(F)F)cc4Cl)cc3C#N)CC2)cc1` [Example 9], in data set [2] (Conc. 20.0 ppm), the “% Mortality 24 h” value stood at 0% and the “% Mortality 48 h” value is reported as 0%.
For the compound `CC1(c2nn(-c3c(Cl)cc(C(F)(F)F)cc3Cl)cc2C#N)CC1(Br)Br` (stereo not drawn) [Example 14], the “% Mortality 4 h” value in data set [1] was 10%; in data set [3] (Conc. 0.78 ug/cm2, 4 h), 40%; in data set [3] (Conc. 7.80 ug/cm2, 4 h), 50%. Besides, the “% Mortality 24 h” value in data set [1] amounted to 100%; in data set [3] (Conc. 0.78 ug/cm2, 24 h), 40%; in data set [3] (Conc. 7.80 ug/cm2, 24 h), 80%; in data set [2] (Conc. 0.2 ppm), 50%; in data set [2] (Conc. 2.0 ppm), 100%; in data set [2] (Conc. 20.0 ppm), 95%. Besides, the “% Mortality 48 h” value turned out to be 50% in data set [2] (Conc. 0.2 ppm), 100% in data set [2] (Conc. 2.0 ppm) and 100% in data set [2] (Conc. 20.0 ppm).
On to `COc1ccc(C2(c3nn(-c4c(Cl)cc(Cl)cc4Cl)cc3C#N)CC2)cc1` [Example 13], for which, in data set [2] (Conc. 20.0 ppm), the “% Mortality 24 h” value turned out to be 0% and the “% Mortality 48 h” value is listed as 0%.
With `CC1(c2nn(-c3c(Cl)cc(C(F)(F)F)cc3Cl)c(N)c2C#N)CC1(Br)Br` (stereo not drawn) [Example 21], the “% Mortality 4 h” value was 0% in data set [1]; 10% in data set [3] (Conc. 0.78 ug/cm2, 4 h); 0% in data set [3] (Conc. 7.80 ug/cm2, 4 h). Moreover, the “% Mortality 24 h” value in data set [1] is recorded as 0%; in data set [3] (Conc. 0.78 ug/cm2, 24 h) it was 10%; in data set [3] (Conc. 7.80 ug/cm2, 24 h), 40%; in data set [2] (Conc. 0.2 ppm), 0%; in data set [2] (Conc. 2.0 ppm) it was 95%; in data set [2] (Conc. 20.0 ppm), 90%. Also, the “% Mortality 48 h” value in data set [2] (Conc. 0.2 ppm) stood at 0%; in data set [2] (Conc. 2.0 ppm), 100%; in data set [2] (Conc. 20.0 ppm), 100%.
In the case of `N#Cc1cn(-c2c(Cl)cc(C(F)(F)F)cc2Cl)nc1C1(c2ccc(Cl)cc2)CC1` [Example 10], in data set [2] (Conc. 20.0 ppm), the “% Mortality 24 h” value stood at 0% and the “% Mortality 48 h” value worked out at 0%.
With `CC1(c2nn(-c3c(Cl)cc(C(F)(F)F)cc3Cl)c([N+](=O)[O-])c2C#N)CC1(Cl)Cl` (stereo not drawn) [Example 30], in data set [1], the “% Mortality 4 h” value is recorded as 0%. The entries for the “% Mortality 24 h” value in data set [1], in data set [2] (Conc. 10.0 ppm) and in data set [2] (Conc. 20.0 ppm) were 100%, 10% and 20%, respectively. The “% Mortality 48 h” value in data set [2] (Conc. 10.0 ppm) is 50%; in data set [2] (Conc. 20.0 ppm), 20%.
On to `CCOC=Nc1c(C#N)c(C2(C)CC2(Cl)Cl)nn1-c1c(Cl)cc(C(F)(F)F)cc1Cl` (racemic) [Example 40], for which, in data set [1], the “% Mortality 4 h” value is recorded as 0% and the “% Mortality 24 h” value was determined as 100%. For the same compound, in data set [2] (Conc. 2.0 ppm), the “% Mortality 24 h” value stood at 0% and the “% Mortality 48 h” value is listed as 0%. Also, in data set [2] (Conc. 20.0 ppm), the “% Mortality 24 h” value was 100% and the “% Mortality 48 h” value is on record as 100%.
For the compound `CC1(c2nn(-c3c(Cl)cc(Cl)cc3Cl)cc2C#N)CC1(Cl)Cl` (stereo not drawn) [Example 6], in data set [2] (Conc. 1.0 ppm), the “% Mortality 24 h” value was determined as 10% and the “% Mortality 48 h” value came out at 10%. In addition, in data set [2] (Conc. 20.0 ppm), the “% Mortality 24 h” value is listed as 70% and the “% Mortality 48 h” value amounted to 70%.
Consider `CN(C)C=Nc1c(C#N)c(C2(C)CC2(Cl)Cl)nn1-c1c(Cl)cc(C(F)(F)F)cc1Cl` (stereo not drawn) [Example 38], for which, in data set [2] (Conc. 20.0 ppm), the “% Mortality 24 h” value is 0% and the “% Mortality 48 h” value was determined as 0%.
As to `CCCOC=Nc1c(C#N)c(C2(C)CC2(Cl)Cl)nn1-c1c(Cl)cc(C(F)(F)F)cc1Cl` (racemic) [Example 39], the “% Mortality 4 h” value in data set [1] came out at 0%. Besides, the “% Mortality 24 h” value is reported as 70% in data set [1], 0% in data set [2] (Conc. 0.2 ppm), 70% in data set [2] (Conc. 2.0 ppm) and 100% in data set [2] (Conc. 20.0 ppm). The “% Mortality 48 h” value in data set [2] (Conc. 0.2 ppm) came out at 0%; in data set [2] (Conc. 2.0 ppm) it was 70%; in data set [2] (Conc. 20.0 ppm) it was 100%.
For `CC1(c2nn(-c3c(Cl)cc(C(F)(F)F)cc3Cl)cc2C#N)CC1(Cl)Cl` (stereo not drawn) [Example 5], in data set [1], the “% Mortality 4 h” value came out at 0% and the “% Mortality 24 h” value was 33%.
Consider `CC(C)(C)C(=O)Nc1c(C#N)c(C2(C)CC2(Cl)Cl)nn1-c1c(Cl)cc(C(F)(F)F)cc1Cl` (stereo not drawn) [Example 34], for which, in data set [2] (Conc. 20.0 ppm), the “% Mortality 24 h” value turned out to be 0% and the “% Mortality 48 h” value was 0%.
As to `CC1(c2nn(-c3c(Cl)cc(Cl)cc3Cl)cc2C#N)CC1(Br)Br` (stereo not drawn) [Example 15], the “% Mortality 4 h” value in data set [1] is reported as 10%. Besides, the “% Mortality 24 h” value was 80% in data set [1], 0% in data set [2] (Conc. 0.2 ppm), 95% in data set [2] (Conc. 2.0 ppm) and 90% in data set [2] (Conc. 20.0 ppm). The “% Mortality 48 h” value was 0% in data set [2] (Conc. 0.2 ppm), 95% in data set [2] (Conc. 2.0 ppm) and 90% in data set [2] (Conc. 20.0 ppm).
Take `CCN(CC)c1c(C#N)c(C2(C)CC2(Cl)Cl)nn1-c1c(Cl)cc(C(F)(F)F)cc1Cl` (stereo not drawn) [Example 33]: in data set [1], the “% Mortality 4 h” value is reported as 20%. The “% Mortality 24 h” value in data set [1] came out at 100%; in data set [2] (Conc. 0.2 ppm), 0%; in data set [2] (Conc. 2.0 ppm), 90%; in data set [2] (Conc. 20.0 ppm), 100%. The results for the “% Mortality 48 h” value in data set [2] (Conc. 0.2 ppm), in data set [2] (Conc. 2.0 ppm) and in data set [2] (Conc. 20.0 ppm) were 0%, 90% and 100%, respectively.
`N#Cc1cn(-c2c(Cl)cc(C(F)(F)F)cc2Cl)nc1C1(c2ccc(Cl)cc2Cl)CC1` [Example 17]: in data set [2] (Conc. 20.0 ppm), the “% Mortality 24 h” value is recorded as 0% and the “% Mortality 48 h” value is on record as 0%.
As to `COC=Nc1c(C#N)c(C2(C)CC2(Cl)Cl)nn1-c1c(Cl)cc(C(F)(F)F)cc1Cl` (stereo not drawn) [Example 37], in data set [1], the “% Mortality 4 h” value is listed as 10% and the “% Mortality 24 h” value is 100%. In data set [2] (Conc. 2.0 ppm), the “% Mortality 24 h” value stood at 0% and the “% Mortality 48 h” value is recorded as 0%. In addition, in data set [2] (Conc. 20.0 ppm), the “% Mortality 24 h” value worked out at 100% and the “% Mortality 48 h” value is 100%.
As to `CC1(c2nn(-c3c(Cl)cc(Cl)cc3Cl)cc2C#N)CC1` [Example 11], in data set [2] (Conc. 20.0 ppm), the “% Mortality 24 h” value came out at 0% and the “% Mortality 48 h” value worked out at 0%.
`N#Cc1cn(-c2c(Cl)cc(Cl)cc2Cl)nc1C1(c2ccc(Cl)cc2Cl)CC1` [Example 18]: in data set [2] (Conc. 20.0 ppm), the “% Mortality 24 h” value was 0% and the “% Mortality 48 h” value turned out to be 0%.
Turning to `CC1(c2nn(-c3c(Cl)cc(C(F)(F)F)cc3Cl)c(N(C(=O)C3CC3)C(=O)C3CC3)c2C#N)CC1(Cl)Cl` (stereo not drawn) [Example 35], in data set [2] (Conc. 20.0 ppm), the “% Mortality 24 h” value is on record as 0% and the “% Mortality 48 h” value was found to be 0%.
In the case of `N#Cc1c(C2CC2)nn(-c2c(Cl)cc(C(F)(F)F)cc2Cl)c1N` [Example 24], in data set [2] (Conc. 10.0 ppm), the “% Mortality 24 h” value is 0% and the “% Mortality 48 h” value is listed as 0%.
Regarding `N#Cc1c(C2CC2)nn(-c2c(Cl)cc(C(F)(F)F)cc2Cl)c1Cl` [Example 26], the “% Mortality 4 h” value in data set [1] is 100%. For the same compound, the “% Mortality 24 h” value in data set [1] came to 100%; in data set [2] (Conc. 2.0 ppm), 0%; in data set [2] (Conc. 10.0 ppm) it was 0%; in data set [2] (Conc. 20.0 ppm), 97%. Besides, the “% Mortality 48 h” value in data set [2] (Conc. 2.0 ppm) worked out at 0%; in data set [2] (Conc. 10.0 ppm), 50%; in data set [2] (Conc. 20.0 ppm), 97%.
As to `CC1(c2nn(-c3c(Cl)cc(C(F)(F)F)cc3Cl)c(NC(=O)C3CC3)c2C#N)CC1(Cl)Cl` (stereo not drawn) [Example 36], in data set [2] (Conc. 10.0 ppm), the “% Mortality 24 h” value is reported as 0%. Also, in data set [2] (Conc. 20.0 ppm), the “% Mortality 24 h” value turned out to be 10% and the “% Mortality 48 h” value was determined as 10%.
As to `CC1(c2nn(-c3c(Cl)cc(Cl)cc3Cl)c(N)c2C#N)CC1(Cl)Cl` (stereo not drawn) [Example 25], the “% Mortality 24 h” value in data set [2] (Conc. 10.0 ppm) came out at 0%; in data set [2] (Conc. 20.0 ppm), 5%. In addition, the “% Mortality 48 h” value in data set [2] (Conc. 10.0 ppm) is 0%; in data set [2] (Conc. 20.0 ppm), 5%.
